Assay results: US7947703B2, “Phenanthridinium derivatives as DNA binding agents” (University Court of the University of Glasgow, priority 2003, dated 2011)
“Also recorded” adds a separate entry of the source. Marks after values point to notes of the source that are not given here.

Assays:
[1] = system: human ovarian tumour cell line A2780; assay: growth (tetrazolium dye-based microtitration) cytotoxicity assay, A2780; type: cell-based; settings: for IC50: cisplatin-sensitive line, 24 hours drug exposure, 3 day recovery, mean±SEM of triplicate plates; for cytotoxicity (in words): overall statement across A2780, A2780/cp70 and MCP1
Protocol: (§1) Compounds were tested in a growth assay with a 24 hours drug exposure and a 3 day recovery period. Cell lines used were human ovarian tumour cell line A2780 and 2 Cisplatin resistant derivatives cell lines A27080/cp70 and MCP1. IC50 is the concentration of drug required to reduce the surviving cell number to 50% of that of the control untreated cells. Results are from one experiment and are the mean±SEM of the triplicate plates.
(§2) DIP cytotoxicity was determined by a tetrazolium dye-based microtitration assay. DNA affinity measurements of DIPs were undertaken using Isothermal Titration Calorimetry (ITC).

[2] = system: Cisplatin resistant cell line MCP1; assay: growth (tetrazolium dye-based microtitration) cytotoxicity assay, MCP1; type: cell-based, human; settings: for IC50: cisplatin-resistant line, 24 hours drug exposure, 3 day recovery, mean±SEM of triplicate plates; for RF2: rapport of the IC50 between A2780 and MCP1, the lower RF the better
Protocol: as §1, §2

[3] = system: Cisplatin resistant cell line A2780/cp70; assay: growth (tetrazolium dye-based microtitration) cytotoxicity assay, A2780/cp70; type: cell-based, human; settings: for IC50: cisplatin-resistant line, 24 hours drug exposure, 3 day recovery, mean±SEM of triplicate plates; for RF1: rapport of the IC50 between A2780 and A2780/cp70, the lower RF the better
Protocol: as §1, §2

Salmon DNA = assay: DNA affinity by Isothermal Titration Calorimetry (ITC), Salmon DNA; type: binding
Protocol: as §2

Calf DNA = assay: DNA affinity by Isothermal Titration Calorimetry (ITC), Calf DNA; type: binding
Protocol: as §2

Work on `O=C(CN1CC[n+]2c1c1ccccc1c1ccccc12)N1CCN(C(=O)CN2CC[n+]3c2c2ccccc2c2ccccc23)CC1.[Br-].[Br-]` [AP8-66] yielded an IC50 ([1]; Homo sapiens, A2780) of 11.7 ± 1.1 µM, an IC50 ([2]; Homo sapiens) of 6840 ± 890 nM and an RF2 [2] of 0.6. The IC50 ([3]; Homo sapiens, A2780/CP70) was 15.6 ± 2.1 µM and the RF1 [3] was 1.3.

For `[Br-].[Br-].c1ccc2c(c1)c1[n+](c3ccccc23)CCN1CCN1CCN(CCN2CC[n+]3c2c2ccccc2c2ccccc23)CC1` [AP9-5], the IC50 ([1]; Homo sapiens, A2780) was 18.3 ± 2.8 µM, the IC50 ([2]; Homo sapiens) was 3940 ± 320 nM and the RF2 [2] was 0.2. The IC50 ([3]; Homo sapiens, A2780/CP70) was 5.65 ± 0.2 µM and the RF1 [3] was 0.3.

In the case of `[Br-].c1ccc(CN2CC[n+]3c2c2ccccc2c2ccccc23)cc1` [AP9-45], the IC50 ([1]; Homo sapiens, A2780) is reported as 2.32 ± 0.33 µM, the IC50 ([2]; Homo sapiens) is reported as 1290 ± 110 nM and the RF2 [2] is reported as 0.6. It also gave an IC50 ([3]; Homo sapiens, A2780/CP70) of 2.26 ± 0.23 µM and an RF1 [3] of 1.0.

Compound `Br.Br.Br.O=C(CN1CC[n+]2c1c1ccccc1c1ccccc12)N1CCCN(C(=O)CN2CC[n+]3c2c2ccccc2c2ccccc23)CCCN(C(=O)CN2CC[n+]3c2c2ccccc2c2ccccc23)CCC1` [AP9-82] has an IC50 ([1]; Homo sapiens, A2780) of 15.6 ± 2.76 µM, an IC50 ([2]; Homo sapiens) of 7590 ± 320 nM and an RF2 [2] of 0.5. The IC50 ([3]; Homo sapiens, A2780/CP70) was 4.57 ± 0.18 µM and the RF1 [3] was 0.3.

`CCCN1CC[n+]2c1c1ccccc1c1ccccc12` [AP10-22, 1-Propyl-2,3-dihydro-1H-imidazo[1,2-f]phenanthridin-4-ylium bromide] was tested, and the IC50 ([1]; Homo sapiens, A2780) was 6.71 ± 0.86 µM, the “cytotoxicity (in words)” value [1] was “the least active of all the alkyl DIP derivatives” and the “Ka Salmon DNA” value (Salmon DNA) was 3.11 ± 2203 M^−1 (10^4). For the same compound, the “Ka Calf DNA” value (Calf DNA) was 3.67 ± 1310 M^−1 (10^4), the IC50 ([2]; Homo sapiens) was 2860 ± 320 nM and the RF2 [2] was 0.4. It also gave an IC50 ([3]; Homo sapiens, A2780/CP70) of 5.11 ± 0.19 µM and an RF1 [3] of 0.8.

In the case of `Br.Br.Br.Br.c1ccc2c(c1)c1[n+](c3ccccc23)CCN1CC[N+]12CC[N+](CCN3CC[n+]4c3c3ccccc3c3ccccc34)(CC1)CC2` [AP11-36], the IC50 ([1]; Homo sapiens, A2780) is reported as 2.34 ± 0.25 µM, the IC50 ([2]; Homo sapiens) is reported as 3070 ± 520 nM and the RF2 [2] is reported as 1.3. It also gave an IC50 ([3]; Homo sapiens, A2780/CP70) of 3.4 ± 0.23 µM and an RF1 [3] of 1.5.

For `COc1ccc2c(c[n+](C)c3c4cc5c(cc4ccc23)OCO5)c1OC.[Cl-]` [Chelerythrine, reference compound], the IC50 ([1]; Homo sapiens, A2780) was 4.63 ± 0.52 µM, the IC50 ([2]; Homo sapiens) was 2290 ± 150 nM and the RF2 [2] was 0.5. The IC50 ([3]; Homo sapiens, A2780/CP70) was 1.79 ± 0.02 µM and the RF1 [3] was 0.4.

In the case of `N.N.[Cl][Pt][Cl]` [Cisplatin, reference compound], the IC50 [1] is reported as 0.25 ± 0.02 µM, the IC50 [2] is reported as 430 ± 60 nM and the RF2 [2] is reported as 1.7. It also gave an IC50 [3] of 1.46 ± 0.04 µM and an RF1 [3] of 5.8.

With `CC[n+]1c(-c2ccccc2)c2cc(N)ccc2c2ccc(N)cc21.[Br-]` [EtBr, ethidium bromide, reference compound] the IC50 ([1]; Homo sapiens, A2780) was 0.3 ± 0.039 µM, the “Ka Salmon DNA” value (Salmon DNA) was 12.9 ± 4533 M^−1 (10^4) and the “Ka Calf DNA” value (Calf DNA) was 9.31 ± 3353 M^−1 (10^4). The IC50 ([2]; Homo sapiens) was 450 ± 8 nM, the RF2 [2] was 1.5 and the IC50 ([3]; Homo sapiens, A2780/CP70) was 0.658 ± 0.118 µM. For the same compound, the RF1 [3] was 2.2.

With `COC(=O)CN1CC[n+]2c1c1ccccc1c1ccccc12.[Br-]` [LS1-8] the IC50 ([1]; Homo sapiens, A2780) was 48.4 ± 8.5 µM, the “cytotoxicity (in words)” value [1] was “moderate activity” and the IC50 ([2]; Homo sapiens) was 33000 ± 1600 nM. For the same compound, the RF2 [2] was 0.7, the IC50 ([3]; Homo sapiens, A2780/CP70) was 54.9 ± 3.4 µM and the RF1 [3] was 1.1.

For `C[C@H](CO)N1CC[n+]2c1c1ccccc1c1ccccc12.[Br-]` [LS1-52], the IC50 ([1]; Homo sapiens, A2780) was 2.86 ± 0.37 µM, the “Ka Salmon DNA” value (Salmon DNA) was 1.73 ± 989.3 M^−1 (10^4) and the “Ka Calf DNA” value (Calf DNA) was 1.42 ± 785 M^−1 (10^4). For the same compound, the IC50 ([2]; Homo sapiens) was 4770 ± 90 nM, the RF2 [2] was 1.7 and the IC50 ([3]; Homo sapiens, A2780/CP70) was 8.43 ± 0.37 µM. The RF1 [3] was 3.

Work on `COc1ccc(CN2CC[n+]3c2c2ccccc2c2cc(Br)ccc23)cc1.[Br-]` [LS1-72] yielded an IC50 ([1]; Homo sapiens, A2780) of 0.823 ± 0.219 µM, an IC50 ([2]; Homo sapiens) of 997 ± 34 nM and an RF2 [2] of 1.2. For the same compound, the IC50 ([3]; Homo sapiens, A2780/CP70) was 1.67 ± 0.18 µM and the RF1 [3] was 2.

`[Br-].[Br-].c1ccc2c(c1)c1[n+](c3ccccc23)CCN1CCNCCN1CC[n+]2c1c1ccccc1c1ccccc12` [LS1-81] showed an IC50 ([1]; Homo sapiens, A2780) of 32.4 ± 2 µM, an IC50 ([2]; Homo sapiens) of 25400 ± 2900 nM and an RF2 [2] of 0.8. The IC50 ([3]; Homo sapiens, A2780/CP70) was 15.1 ± 0.9 µM and the RF1 [3] was 0.5.

With `COC(=O)[C@@H](Cc1ccccc1)N1CC[n+]2c1c1ccccc1c1ccccc12.[Br-]` [LS2-6] the “cytotoxicity on cisplatin-sensitive cell line A2780 (in words)” value [1] was “moderate cytotoxicity”, the IC50 ([1]; Homo sapiens, A2780) was 31.2 ± 4.2 µM and the “cytotoxicity (in words)” value [1] was “moderate activity; also recorded: moderate cytotoxicity in the three lines”. The IC50 ([2]; Homo sapiens) was 34200 ± 4300 nM, the RF2 [2] was 1.1 and the IC50 ([3]; Homo sapiens, A2780/CP70) was 26.4 ± 3.3 µM. For the same compound, the RF1 [3] was 0.9.

`[Br-].c1ccc(C(CCN2CC[n+]3c2c2ccccc2c2ccccc23)c2ccccc2)cc1` [LS2-10] gave an IC50 ([1]; Homo sapiens, A2780) of 2.06 ± 0.34 µM, an IC50 ([2]; Homo sapiens) of 2030 ± 310 nM and an RF2 [2] of 1. For the same compound, the IC50 ([3]; Homo sapiens, A2780/CP70) was 1.73 ± 0.12 µM and the RF1 [3] was 0.8.

In the case of `CCc1ccc(N2CC[n+]3c2c2ccccc2c2ccccc23)cc1.[Br-]` [LS2-11], the IC50 ([1]; Homo sapiens, A2780) is reported as 1.54 ± 0.12 µM, the IC50 ([2]; Homo sapiens) is reported as 1110 ± 160 nM and the RF2 [2] is reported as 0.7. The IC50 ([3]; Homo sapiens, A2780/CP70) was 1.25 ± 0.14 µM and the RF1 [3] was 0.8.
